In ChEMBL document CHEMBL5608109, “Hepatotoxicity screening of Donated Chemical Probes” (2024):
Where a name gives a salt, the structure may show the parent alone. Where a SMILES comes first, the peptide text is derived from it. [ ]: non-standard residue; d: D form. Arg(Me) = CNC(=N)NCCC[C@H](N)C(=O)O; d4Pal = N[C@H](Cc1ccncc1)C(=O)O; azaGly = NNC(=O)O

System: Hepatocyte spheroids
Test: This assay model using primary human hepatocyte (PHH) spheroids, which are cultured in Williams E medium. After spheroid formation, cells are exposed to compounds in an FBS-free culture medium. […] Imaging is performed on an Opera Phenix High-Content Screening System, allowing quantification of proliferation as a readout for evaluating the effects of chemical probes on hepatocyte regeneration.
Format: functional
Conditions: read-out: Cell Viability; for viability at 1 µM: Concentration 1 uM; for viability at 10 µM: Concentration 10 uM; for viability at 0.1 µM: Concentration 0.1 uM

SMILES | viability at 1 µM | viability at 10 µM | viability at 20 µM (Concentration 20 uM) | viability at 0.1 µM
CCC(F)(F)c1cc(N2CCC(S(C)(=O)=O)CC2)nc2sc(C(N)=O)c(N)c12 [BI-605906] | 103% (non-toxic) | 134% (non-toxic) |  | 
O=c1nc(-c2ccccn2)sc2ccccc12 [BTZO-1] | 99.7% (non-toxic) | 73.5% (non-toxic) |  | 
C=CC(=O)Nc1ccc2[nH]c(=O)n(C3CCN(Cc4ccc(-c5nc6cc[nH]c(=O)c6cc5-c5ccccc5)cc4)CC3)c2c1 [Borussertib] | 48.8% (toxic) | 16% (toxic) |  | 
CN(C)CCCN1c2ccccc2Sc2ccc(Cl)cc21 [CHLORPROMAZINE HYDROCHLORIDE] |  |  | 0.683% (toxic) | 
CNC(=O)c1ccc(Nc2ncc(C(F)(F)F)c(NCc3nccnc3N(C)S(C)(=O)=O)n2)cc1 [DEFACTINIB] | 55.4% (toxic) |  |  | 46.1% (toxic)
Cn1c(C2(NC(=O)c3ccc4c(C5CCCC5)c(-c5ncc(Br)cn5)n(C)c4c3)CCC2)nc2ccc(/C=C/C(=O)O)cc21 [DELEOBUVIR] | 135% (non-toxic) | 157% (non-toxic) |  | 
C[C@@H](NC(=O)Nc1cc2[nH]ncc2c(CO)n1)c1ccccc1 [ERKi] | 75% (non-toxic) | 75.2% (non-toxic) |  | 
O=C(NCCN1CCOCC1)c1ccc2c(c1)C(=O)c1ccc(Nc3ccc(F)c(NC(=O)c4ccccc4)c3)cc1CC2 [FS-694] | 74.8% (non-toxic) | 84.2% (non-toxic) |  | 
CC(=O)Nc1c(F)cc(C(=O)N[C@H]2CC[C@H](O)CC2)cc1O[C@@H](C)c1ccccc1 [GSK046] | 96.7% (non-toxic) | 85.2% (non-toxic) |  | 
CNC(=O)c1cc(C(=O)NC2CC2)cn(Cc2ccccc2)c1=O [GSK620] | 117% (non-toxic) | 85.9% (non-toxic) |  | 
COCc1nc2cnc3cc(-c4c(C)noc4C)c(OC[C@H]4CCNC4)cc3c2n1[C@H](C)c1ccccc1 [GSK778] | 118% (non-toxic) | 64% (toxic) |  | 
Cc1cc2c(-c3ccco3)cnc(N[C@@H]3CCN(C)C[C@H]3C(=O)NC3CCCCC3)c2[nH]c1=O [GSK789] | 52.2% (toxic) | 27.6% (toxic) |  | 
CNC(=O)c1cc(C(=O)N[C@H]2[C@@H]3COC[C@@H]32)cc2c1O[C@H](CF)[C@H]2c1ccccc1 [GSK973] | 103% (non-toxic) | 88.7% (non-toxic) |  | 
COCCc1ccc(-c2c(C)nc3c(N4CCOCC4)ccnn23)cn1 [JNJ-42396302] | 158% (non-toxic) | 160% (non-toxic) |  | 
COc1nc2ccc([C@@](O)(c3ccccc3)C3CCN(C(C)=O)CC3)cc2c(Cl)c1Cc1ccc(-n2cccn2)cc1 [JNJ-54119936] | 116% (non-toxic) | 114% (non-toxic) |  | 
CC(=O)Nc1ncc(CN2CCC[C@H](Cc3cc(C)nc(C)c3)C2)s1 [JNJ-65355394] | 149% (non-toxic) | 142% (non-toxic) |  | 
CNC(=N)NCCC[C@H](NC(=O)[C@H](CC(C)C)NC(=O)NNC(=O)[C@H](Cc1ccccc1)NC(=O)[C@H](CO)NC(=O)[C@H](CC(N)=O)NC(=O)[C@@H](Cc1ccncc1)NC(=O)[C@H](N)Cc1ccc(O)cc1)C(=O)N[C@@H](Cc1ccccc1)C(N)=O [KISS1-305] (H-[dY][d4Pal]NSF[azaGly]L[Arg(Me)]F-NH2) | 98.4% (non-toxic) |  |  | 107% (non-toxic)
CN([C@@H]1CCc2c(CC(=O)O)c3ccccc3n2C1)S(=O)(=O)c1ccc(F)cc1 [MK-7246] | 107% (non-toxic) | 111% (non-toxic) |  | 
C[C@@H]1CN(c2cc(-c3n[nH]c4ccc(OC5(C)CC5)cc34)ncn2)C[C@H](C)O1 [MLi-2] | 79.7% (non-toxic) |  |  | 79.3% (non-toxic)
O=S(=O)(NC1CCC(c2cc(F)ccc2F)(S(=O)(=O)c2ccc(Cl)cc2)CC1)C(F)(F)F (stereo unspecified) [MRK-560] | 76.1% (non-toxic) |  |  | 101% (non-toxic)
Cc1cc(Nc2nccc(C)n2)cc(-c2cnc([C@@]3(O)CC[C@H](C(=O)O)C(C)(C)C3)s2)c1 [MRL-SYKi] | 95.5% (non-toxic) |  |  | 98.8% (non-toxic)

SMILES | viability at 1 µM | viability at 10 µM | viability at 20 µM (Concentration 20 uM) | viability at 0.1 µM
CC(C)(O)c1cncc(-c2nc3ccc(F)cc3n2C2CC2)c1 [MSD-CYP11B2] | 113% (non-toxic) | 96.6% (non-toxic) |  | 
N#CC1(c2ccccn2)CCN(Cc2cc(C(=O)O)c(=O)n3ccccc23)CC1 [MSD-M1PAM] | 112% (non-toxic) | 87.1% (non-toxic) |  | 
CC(=O)Nc1c(C(C)=O)c(=O)n(C)c2nc(-c3ccc(Cl)cc3Cl)c(-c3ccc(Cl)cc3)cc12 [NAPHTHYRIDINONE] | 117% (non-toxic) | 121% (non-toxic) |  | 
CO[C@@H](C)c1c(Nc2ccc([C@H](N(C)C(=O)C3CCS(=O)(=O)CC3)C(F)(F)F)cc2)cnc2cc(Cl)nn12 [NVS-MALT1] | 99.7% (non-toxic) | 33.9% (toxic) |  | 
Nc1nc(NCc2ccccc2)nc(-c2ccccc2CO)n1 [Ogerin] | 94.3% (non-toxic) | 115% (non-toxic) |  | 
COc1ccc2cc(OCC3(C(=O)O)CN(C(=O)c4ccc(F)cc4)C3)ccc2c1 [PF-04418948] | 153% (toxic) |  |  | 157% (non-toxic)
C[C@H](c1ccc(F)cc1)N(Cc1cccc(C(=O)O)c1)C(=O)c1cnc2ccccc2c1 [PF-05105679] | 126% (non-toxic) | 120% (non-toxic) |  | 
CS(=O)(=O)N1CCCC(NC(=O)[C@H](CCC2CCCCC2)NC(=O)c2ccc(CNC(=O)c3cnc4ccccn34)cc2)C1 (stereo partly specified) [SR-302] | 128% (non-toxic) |  |  | 134% (non-toxic)
Nc1c(C(=O)NCc2ccc(C(=O)NCCCC3CCCCC3)cc2)cnn1-c1ccccc1 [SR-318] | 89.8% (non-toxic) |  |  | 81.4% (non-toxic)
O=C1c2ccc(Nc3ccc(F)cc3F)cc2CCc2ccc(OC[C@H](O)CO)cc21 [Skepinone-L] | 94.6% (non-toxic) | 16.2% (toxic) |  | 
CN1CCN(C(=O)C(C)(C)c2ccc(C(=O)Nc3cn4cc(-c5ccncc5)ccc4n3)cc2)CC1 [T3-CLK] | 109% (non-toxic) | 1.01% (toxic) |  | 
COc1cccc(CNC(=O)c2nc3scc(COCc4ccc(C(=O)O)cc4)c3c(=O)[nH]2)c1 [T-26c] | 99.4% (non-toxic) |  |  | 125% (non-toxic)
COCCOc1nc(-c2ccc(Cl)nc2)nc2c1CN(C(=O)c1ncn3ccccc13)CC2 [THPP-1] | 116% (non-toxic) |  |  | 118% (non-toxic)
Cc1cnc(-c2cc(Cl)ccc2F)cc1-n1c(=O)n(CC(N)=O)c2cnccc21 [TP-008] | 90% (non-toxic) | 99.1% (non-toxic) |  | 
Cn1nc(C(F)(F)F)cc1-c1cnc(N2CCc3cc(S(=O)(=O)Nc4c(F)cc(Cl)cc4F)cc(N4CCCC4=O)c32)nc1 [TP-020] | 121% (non-toxic) | 120% (non-toxic) |  | 
Cc1cc(-n2nc(Cc3cc(F)cc(C(F)(F)F)c3)nc2C)ccc1C(N)=O [TP-024] | 111% (non-toxic) | 92% (non-toxic) |  | 
CN1C(=O)[C@@H](N2CCc3c(nn(Cc4ccccc4)c3Br)C2=O)COc2ccccc21 [TP-030-2] | 56.7% (toxic) |  |  | 69.5% (toxic)
CC1CCN(c2ccnc(NCc3cn(C)cn3)n2)CC1 [TP-040] | 127% (non-toxic) | 133% (non-toxic) |  | 
Cc1ccc2nc(CNCCCOc3ccccc3)cc(O)c2c1 [UCSF924] | 164% (non-toxic) | 147% (non-toxic) |  | 
O=C(NNS(=O)(=O)c1ccccc1F)c1cc(F)cc(-c2ccccn2)c1 [WM-1119] | 107% (non-toxic) | 75.2% (non-toxic) |  | 
